Active and inactive are the calls of the source.
Columns and labels:
[1] = target: T1, Mannose-6-phosphate isomerase (Homo sapiens, UniProt P34949); assay: MPI enzyme activity inhibition – biochemical, fluorescence intensity, coupled assay, primary screen (AID 1209)
T1 sequence (P34949 whole entry): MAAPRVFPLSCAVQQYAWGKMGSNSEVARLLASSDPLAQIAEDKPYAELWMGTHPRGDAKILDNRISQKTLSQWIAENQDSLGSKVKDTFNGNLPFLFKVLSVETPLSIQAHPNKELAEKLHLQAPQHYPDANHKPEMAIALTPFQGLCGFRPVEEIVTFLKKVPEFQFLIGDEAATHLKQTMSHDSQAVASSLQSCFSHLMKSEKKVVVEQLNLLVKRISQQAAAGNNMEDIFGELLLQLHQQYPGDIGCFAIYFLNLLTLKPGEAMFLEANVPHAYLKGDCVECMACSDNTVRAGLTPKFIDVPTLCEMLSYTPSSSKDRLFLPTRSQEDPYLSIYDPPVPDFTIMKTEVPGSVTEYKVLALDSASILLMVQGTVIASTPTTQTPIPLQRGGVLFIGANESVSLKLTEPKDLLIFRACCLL

[2] = target: T1, Mannose-6-phosphate isomerase; assay: MPI inhibition at elevated mannose 6-phosphate – biochemical, fluorescence intensity, high mannose 6-phosphate, primary screen (AID 1220)
[3] = DRD fibroblast viability loss – cell-based, non-viral oncogenic, luminescence, dose response (AID 1934); format: functional; details: Homo sapiens
[4] = test system: BJ; assay: growth inhibition of engineered Ras-driven BJ cells – cell-based, alamar blue fluorescence, cherrypicked samples, dose response (AID 2631); format: functional; details: Homo sapiens;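 note: confirmatory dose-response assay in RAS-dependent BJ fibroblasts engineered with TERT, LT and ST, with cytotoxicity read by fluorescence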
[5] = test system: BJ; assay: BJ-TERT fibroblast viability loss – cell-based, RAS-independent, luminescence, dose response (AID 1933); format: functional; details: Homo sapiens
[6] = test system: INS1; assay: INS-1E survival protection against cytokine death – cell-based, luminescence, retest, dose response (AID 449756); format: functional; details: Rattus norvegicus;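 note: cell death triggered by IL-1 beta plus TNF-alpha plus IFN-gamma mixture; protective hits raise ATP signal compared with cytokine alone wells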
[7] = target: T2, Sphingosine 1-phosphate receptor 4 (Homo sapiens, UniProt O95977); assay: Fluorescence dose response cell-based high throughput screening assay for antagonists of the Sphingosine 1-Phosphate Receptor 4 (S1P4). [Related pubchem assays: 1524 (Confirmation in triplicates.), 1510 (Primary screen.)]; format: functional
T2 sequence (O95977 whole entry): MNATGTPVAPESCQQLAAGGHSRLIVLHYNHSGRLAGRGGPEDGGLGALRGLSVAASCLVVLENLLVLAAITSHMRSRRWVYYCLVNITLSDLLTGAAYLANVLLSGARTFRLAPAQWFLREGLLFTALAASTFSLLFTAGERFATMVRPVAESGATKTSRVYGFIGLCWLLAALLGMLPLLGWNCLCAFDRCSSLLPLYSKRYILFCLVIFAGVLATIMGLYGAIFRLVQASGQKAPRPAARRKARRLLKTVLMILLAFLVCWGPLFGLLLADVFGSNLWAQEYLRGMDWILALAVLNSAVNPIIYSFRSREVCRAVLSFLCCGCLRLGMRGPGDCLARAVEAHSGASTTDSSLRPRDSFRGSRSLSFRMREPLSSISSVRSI

[8] = target: T3, Heat shock factor protein 1 (Mus musculus, UniProt P38532); assay: decrease of HSF1-responsive luciferase luminescence – cell-based, NIH3T3, dose retest, confirmation (AID 2382); format: functional;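 note: NIH3T3 fibroblasts with HSF1-driven luciferase reporter stressed by proteasome inhibitor MG132; luminescence from HSF1-driven luciferase expression after 8 hours of MG132 stress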
T3 sequence (P38532 whole entry): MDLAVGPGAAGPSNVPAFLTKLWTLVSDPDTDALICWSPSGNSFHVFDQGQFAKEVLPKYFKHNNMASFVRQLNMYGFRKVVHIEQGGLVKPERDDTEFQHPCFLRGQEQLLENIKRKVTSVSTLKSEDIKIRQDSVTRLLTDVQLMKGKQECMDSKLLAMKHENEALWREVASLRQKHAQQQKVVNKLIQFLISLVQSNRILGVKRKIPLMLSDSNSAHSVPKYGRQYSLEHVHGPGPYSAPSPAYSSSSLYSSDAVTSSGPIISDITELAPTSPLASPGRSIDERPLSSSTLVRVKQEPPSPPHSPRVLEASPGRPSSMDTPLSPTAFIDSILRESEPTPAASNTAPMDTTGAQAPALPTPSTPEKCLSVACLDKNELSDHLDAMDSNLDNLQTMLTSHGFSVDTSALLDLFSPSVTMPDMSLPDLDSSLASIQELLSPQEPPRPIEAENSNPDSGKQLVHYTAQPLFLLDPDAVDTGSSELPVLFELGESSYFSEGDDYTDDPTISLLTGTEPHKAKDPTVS

[9] = target: Sphingosine 1-phosphate receptor 1 (Homo sapiens, UniProt P21453); format: functional;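 note: Tango beta-arrestin reporter U2OS cells stimulated with S1P near its EC80; inhibitor potency meaning antagonism of receptor activation by the natural agonist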
[10] = HEK-293T viability loss after treatment – luminescence, T-cell screen hits, cytotoxicity control for TCR NF-kB inhibitor project, dose response (AID 489026); format: functional, cell-based;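 note: cells exposed to compound about 14 hours before the viability readout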
[11] = test system: BJ; assay: BJ-TERT-LT-ST fibroblast viability loss – cell-based, RAS-independent, luminescence, dose response (AID 1935); format: functional; details: Homo sapiens;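 note: BJ fibroblasts immortalized with TERT plus LT and ST oncogenes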
[12] = test system: BJ; assay: cells; format: functional, cell-based; details: Homo sapiens
[13] = target: Protein-tyrosine kinase 2-beta (Homo sapiens, UniProt Q14289);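 note: potency of inhibitors of PYK2 kinase phosphorylation of poly-GT substrate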
[14] = cells; format: functional
[15] = Trypanosoma cruzi growth suppression in host cells – NIH3T3 host cells, beta-gal luminescence, confirmation (AID 2044); format: functional, cell-based;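 note: intracellular parasites grown in NIH/3T3 mouse fibroblasts as host cells; luminescent beta-galactosidase reporter signal from transgenic T. cruzi replicating inside host cells; inhibitors lower the luminescence signal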
[16] = cells
[17] = Vero E6 cell cytotoxicity, dose response, cytotoxicity control for non-replicating M. tuberculosis project, secondary assay (AID 492998); format: functional, VeroE6; details: Vero C1008
[18] = THP-1 cell cytotoxicity, dose response, cytotoxicity control for non-replicating M. tuberculosis project (AID 489025); format: functional
[19] = NIH3T3 cell viability loss – ATP luminescence, mouse fibroblasts, counter-screen, dose response (AID 2010); format: functional, cell-based;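 note: cells exposed to compound for about 90 hours before reading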
[20] = viability inhibitors of stage V gametocytes – luminescence, dose response (AID 1117278); format: functional, cell-based;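 note: gametocytes exposed to compound for 24 hours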
[21] = viability loss in human Jurkat cells – cell-based, luminescence, cytotoxicity control for P. falciparum gametocyte viability project, dose response (AID 1117277); format: functional;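 note: potency reflects loss of cellular ATP meaning fewer viable cells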
[22] = target: Voltage-dependent T-type calcium channel subunit alpha-1H (Homo sapiens, UniProt O95180); format: functional;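 note: channel activity triggered by adding a high calcium stimulation buffer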
[23] = target: T4, Microphthalmia-associated transcription factor (Homo sapiens, UniProt O75030); assay: reducers of TRPM1 reporter luminescence, concentration series – cell-based, SK-MEL-5, cherry-picked, set 3, MITF inhibitor project, dose response (AID 493073); format: functional;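 note: SK-MEL-5 melanoma cells with luciferase driven by the MITF target TRPM1 promoter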
T4 sequence (O75030 whole entry): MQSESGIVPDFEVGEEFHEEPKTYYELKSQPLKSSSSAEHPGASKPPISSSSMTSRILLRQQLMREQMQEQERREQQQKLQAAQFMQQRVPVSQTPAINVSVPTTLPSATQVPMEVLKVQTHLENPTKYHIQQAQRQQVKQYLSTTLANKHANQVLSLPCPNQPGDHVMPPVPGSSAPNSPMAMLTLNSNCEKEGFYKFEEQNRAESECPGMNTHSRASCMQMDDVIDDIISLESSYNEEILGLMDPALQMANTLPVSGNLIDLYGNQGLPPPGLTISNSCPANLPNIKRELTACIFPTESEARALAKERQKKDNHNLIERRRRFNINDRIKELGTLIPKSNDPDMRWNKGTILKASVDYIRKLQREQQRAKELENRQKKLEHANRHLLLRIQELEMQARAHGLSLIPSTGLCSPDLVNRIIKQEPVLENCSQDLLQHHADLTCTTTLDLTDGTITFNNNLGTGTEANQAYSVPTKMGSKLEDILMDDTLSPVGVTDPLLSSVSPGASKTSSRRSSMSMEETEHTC

[24] = target: T5, Estrogen receptor beta (Homo sapiens, UniProt Q92731); assay: blockers of SRC-3 recruitment to ERβ – biochemical, ELISA, streptavidin-HRP readout, orthogonal assay, confirmation (AID 1060)
[25] = target: T5, Estrogen receptor beta
[26] = target: T6, SUMO-activating enzyme (Homo sapiens, UniProt Q9UBT2); assay: blockers of UBC9-mediated SUMO conjugation – biochemical, AlphaScreen, SUMOylation inhibitor project, confirmation (AID 2018); format: functional
[27] = target: T6, SUMO-activating enzyme; assay: blockers of SAE1/SAE2–UBC9 SUMO transfer – biochemical, HTRF, uHTS, primary screen (AID 2006); format: protein-complex assay
[28] = A cytotoxicity screen of small molecule inhibitors of the PhoP region in Salmonella typhi identified in the primary screen. [Related pubchem assays: 1850, 1864, 1985 ]; format: functional
[29] = viability loss in THP-1 monocytes – THP-1 cells, cytotoxicity control for Vif-APOBEC3G degradation inhibitor project, dose response (AID 1117359); format: functional; details: THP-1
[30] = test system: Vero; assay: viability of Vero cells under compound – cytotoxicity control for flavivirus capping enzyme inhibitors (AID 588742); format: functional; details: Chlorocebus sabaeus
[31] = target: Cytochrome P450 2D6 (Homo sapiens, UniProt P10635);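 note: CYP2D6 member of a cytochrome P450 panel assay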
[32] = target: Cytochrome P450 2C9 (Homo sapiens, UniProt P11712)
[33] = target: T7, Protein Tat (Human immunodeficiency virus type 1 group M subtype B (isolate HXB2)(HIV-1), UniProt P04608); format: functional;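 note: tat binding to TAR RNA read out by fluorescence polarization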
T7 sequence (P04608 whole entry): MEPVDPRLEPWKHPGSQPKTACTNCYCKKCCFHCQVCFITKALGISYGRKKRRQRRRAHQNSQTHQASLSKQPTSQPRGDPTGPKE

[34] = target: T8, Carboxy-terminal domain RNA polymerase II polypeptide A small phosphatase 1 (Homo sapiens, UniProt Q9GZU7); assay: CTDSP1 inhibitors, concentration-response, biochemical, absorbance readout, ultra-high-throughput screen actives (AID 540297); format: functional
T8 sequence (Q9GZU7 whole entry): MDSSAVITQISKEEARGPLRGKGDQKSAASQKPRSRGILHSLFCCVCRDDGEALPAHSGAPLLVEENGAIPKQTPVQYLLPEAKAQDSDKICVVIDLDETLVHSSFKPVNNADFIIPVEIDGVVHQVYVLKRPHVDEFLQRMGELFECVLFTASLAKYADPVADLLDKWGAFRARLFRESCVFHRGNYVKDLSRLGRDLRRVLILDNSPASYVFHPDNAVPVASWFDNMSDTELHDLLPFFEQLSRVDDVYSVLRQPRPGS

Chain of Protein-tyrosine kinase 2-beta (Q14289 whole entry): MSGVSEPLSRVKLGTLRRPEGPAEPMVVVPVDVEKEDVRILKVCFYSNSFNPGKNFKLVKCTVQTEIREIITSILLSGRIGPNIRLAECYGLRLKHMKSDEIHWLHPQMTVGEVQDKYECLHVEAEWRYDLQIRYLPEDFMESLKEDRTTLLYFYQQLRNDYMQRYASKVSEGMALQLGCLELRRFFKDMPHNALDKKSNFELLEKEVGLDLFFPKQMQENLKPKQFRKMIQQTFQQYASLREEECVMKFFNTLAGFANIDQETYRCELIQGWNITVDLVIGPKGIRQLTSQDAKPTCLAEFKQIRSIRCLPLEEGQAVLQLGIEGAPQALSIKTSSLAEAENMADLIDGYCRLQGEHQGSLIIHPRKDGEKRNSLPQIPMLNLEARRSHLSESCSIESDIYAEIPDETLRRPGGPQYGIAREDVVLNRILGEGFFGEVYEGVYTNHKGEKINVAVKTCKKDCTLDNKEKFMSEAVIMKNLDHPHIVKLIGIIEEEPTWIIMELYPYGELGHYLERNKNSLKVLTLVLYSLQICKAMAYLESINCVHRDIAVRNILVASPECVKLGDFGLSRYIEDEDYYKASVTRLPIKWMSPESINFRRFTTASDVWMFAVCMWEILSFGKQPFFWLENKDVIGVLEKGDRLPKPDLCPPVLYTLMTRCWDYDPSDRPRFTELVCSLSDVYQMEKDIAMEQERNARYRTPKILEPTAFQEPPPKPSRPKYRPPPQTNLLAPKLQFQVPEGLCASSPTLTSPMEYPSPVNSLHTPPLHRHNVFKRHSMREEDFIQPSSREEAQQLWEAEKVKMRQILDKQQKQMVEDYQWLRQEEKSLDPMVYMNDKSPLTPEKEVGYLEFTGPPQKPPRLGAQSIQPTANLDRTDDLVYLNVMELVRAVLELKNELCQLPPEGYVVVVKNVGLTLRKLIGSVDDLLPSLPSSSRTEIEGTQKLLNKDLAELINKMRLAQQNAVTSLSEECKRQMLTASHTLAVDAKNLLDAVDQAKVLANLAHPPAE
T5 sequence (Q92731 whole entry): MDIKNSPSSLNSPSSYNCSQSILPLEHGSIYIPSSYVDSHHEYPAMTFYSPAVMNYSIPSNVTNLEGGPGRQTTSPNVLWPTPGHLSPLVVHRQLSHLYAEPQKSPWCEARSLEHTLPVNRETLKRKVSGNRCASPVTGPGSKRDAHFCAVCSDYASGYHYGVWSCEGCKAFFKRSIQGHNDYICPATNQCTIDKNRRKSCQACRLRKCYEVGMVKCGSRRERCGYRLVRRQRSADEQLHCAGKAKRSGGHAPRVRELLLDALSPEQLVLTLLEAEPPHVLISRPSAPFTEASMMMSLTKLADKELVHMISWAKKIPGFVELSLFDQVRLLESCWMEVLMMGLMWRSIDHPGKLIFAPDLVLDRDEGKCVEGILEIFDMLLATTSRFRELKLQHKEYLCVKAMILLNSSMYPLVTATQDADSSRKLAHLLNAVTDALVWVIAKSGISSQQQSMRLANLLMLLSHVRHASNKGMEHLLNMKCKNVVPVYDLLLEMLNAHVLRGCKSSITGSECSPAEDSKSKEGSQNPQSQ
Chain of Sphingosine 1-phosphate receptor 1 (P21453 whole entry): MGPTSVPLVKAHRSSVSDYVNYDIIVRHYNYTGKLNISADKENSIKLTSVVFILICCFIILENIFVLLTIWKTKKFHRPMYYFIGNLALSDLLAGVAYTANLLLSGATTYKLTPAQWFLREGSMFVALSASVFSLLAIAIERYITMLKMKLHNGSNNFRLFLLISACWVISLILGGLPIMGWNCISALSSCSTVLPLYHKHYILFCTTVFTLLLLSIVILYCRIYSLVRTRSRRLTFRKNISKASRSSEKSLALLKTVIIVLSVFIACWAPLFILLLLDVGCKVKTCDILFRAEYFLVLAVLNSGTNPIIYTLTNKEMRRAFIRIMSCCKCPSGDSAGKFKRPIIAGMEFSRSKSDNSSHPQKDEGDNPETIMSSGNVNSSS
T6 sequence (Q9UBE0 whole entry): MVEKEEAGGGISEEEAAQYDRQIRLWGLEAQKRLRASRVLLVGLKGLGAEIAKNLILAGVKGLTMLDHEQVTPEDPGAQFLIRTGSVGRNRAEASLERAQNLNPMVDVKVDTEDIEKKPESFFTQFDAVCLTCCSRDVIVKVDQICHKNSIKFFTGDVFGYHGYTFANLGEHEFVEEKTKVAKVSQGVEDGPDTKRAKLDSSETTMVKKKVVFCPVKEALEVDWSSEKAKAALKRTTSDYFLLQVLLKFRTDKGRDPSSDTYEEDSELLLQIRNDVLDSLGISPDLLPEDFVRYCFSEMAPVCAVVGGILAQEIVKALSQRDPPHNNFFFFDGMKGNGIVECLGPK
T6 sequence (Q9UBT2 whole entry): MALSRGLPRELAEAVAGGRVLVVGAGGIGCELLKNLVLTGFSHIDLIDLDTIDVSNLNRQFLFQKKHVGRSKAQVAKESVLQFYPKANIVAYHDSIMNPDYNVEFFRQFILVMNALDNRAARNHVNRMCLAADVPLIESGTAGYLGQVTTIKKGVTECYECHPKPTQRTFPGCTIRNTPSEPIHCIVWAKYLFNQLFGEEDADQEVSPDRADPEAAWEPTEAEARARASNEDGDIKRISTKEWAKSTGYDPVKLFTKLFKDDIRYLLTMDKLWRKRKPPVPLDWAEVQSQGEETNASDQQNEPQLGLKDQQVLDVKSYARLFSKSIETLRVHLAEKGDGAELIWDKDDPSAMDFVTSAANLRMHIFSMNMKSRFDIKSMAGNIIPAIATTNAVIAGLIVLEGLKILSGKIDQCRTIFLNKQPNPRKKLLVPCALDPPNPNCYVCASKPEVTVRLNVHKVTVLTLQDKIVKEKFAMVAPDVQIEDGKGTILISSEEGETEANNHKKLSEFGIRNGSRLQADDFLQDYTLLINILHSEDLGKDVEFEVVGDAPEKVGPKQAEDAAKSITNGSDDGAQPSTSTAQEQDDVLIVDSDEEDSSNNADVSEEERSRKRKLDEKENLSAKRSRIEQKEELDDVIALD
Chain of Cytochrome P450 2D6 (P10635 whole entry): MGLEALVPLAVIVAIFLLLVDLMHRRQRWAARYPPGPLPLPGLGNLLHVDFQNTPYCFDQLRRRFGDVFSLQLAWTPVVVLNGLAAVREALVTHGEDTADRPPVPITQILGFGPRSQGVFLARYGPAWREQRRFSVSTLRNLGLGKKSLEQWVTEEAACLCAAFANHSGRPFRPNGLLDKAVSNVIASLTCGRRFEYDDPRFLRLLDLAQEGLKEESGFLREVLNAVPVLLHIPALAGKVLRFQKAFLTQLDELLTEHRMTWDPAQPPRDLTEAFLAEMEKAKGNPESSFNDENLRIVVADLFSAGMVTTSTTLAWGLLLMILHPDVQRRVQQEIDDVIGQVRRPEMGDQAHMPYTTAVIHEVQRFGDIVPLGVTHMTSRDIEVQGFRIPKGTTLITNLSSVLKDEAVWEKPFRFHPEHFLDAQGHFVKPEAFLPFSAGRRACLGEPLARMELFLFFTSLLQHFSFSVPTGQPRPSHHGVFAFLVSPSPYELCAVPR
Chain of Cytochrome P450 2C9 (P11712 whole entry): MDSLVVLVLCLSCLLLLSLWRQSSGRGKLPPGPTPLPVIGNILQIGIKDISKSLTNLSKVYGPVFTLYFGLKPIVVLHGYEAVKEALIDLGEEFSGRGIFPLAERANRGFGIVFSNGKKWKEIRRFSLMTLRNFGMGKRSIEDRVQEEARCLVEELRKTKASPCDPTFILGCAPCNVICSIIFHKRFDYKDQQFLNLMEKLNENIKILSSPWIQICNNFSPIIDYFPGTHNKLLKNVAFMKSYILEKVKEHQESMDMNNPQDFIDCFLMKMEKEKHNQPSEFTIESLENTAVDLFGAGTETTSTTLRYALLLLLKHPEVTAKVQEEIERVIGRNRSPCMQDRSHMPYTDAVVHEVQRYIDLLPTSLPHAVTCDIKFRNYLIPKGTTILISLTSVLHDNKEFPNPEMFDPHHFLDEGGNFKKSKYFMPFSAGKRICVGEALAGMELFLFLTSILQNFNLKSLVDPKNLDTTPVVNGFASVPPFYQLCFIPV

N#Cc1c(NCCO)nc(NCc2ccccc2)c2c1CCN(Cc1ccccc1)C2
IC50 [1]: > 50 µM (not active) | IC50 [2]: > 50 µM (not active)

O=S1(=O)C=C(Sc2nc3ccccc3s2)c2ccccc21
EC50 [3]: 3.3 µM (active) | EC50 [4]: 0.13 µM (active) | EC50 [5]: 1.23 µM (active) | AC50 [6]: 3.36 µM (active) | IC50 [7]: 0.474 µM (active) | EC50 [8]: 3.93 µM (inconclusive) | IC50 [9]: 12.6 µM (not active) | IC50 [10]: 60.3 µM (inactive) | EC50 [11]: 1.73 µM (inconclusive) | EC50 [12]: 6.14 µM (inconclusive)

Cc1ccc(-c2onc3ccc(C=O)cc23)cc1
IC50 [13]: 30.1 µM (not active)

CCOC(=O)CNCCC(=O)c1ccc(Br)cc1
IC50 [1]: > 50 µM (not active) | IC50 [14]: 20.4 µM (active) | IC50 [2]: > 50 µM (not active)

CCN1CCN(c2ccc(S(=O)(=O)N3CCCCC3)cc2NC(=O)c2ccc([N+](=O)[O-])s2)CC1
EC50 [15]: < 0.1 µM (active) | EC50 [16]: 0.052 µM (active) | IC50 [14]: 7.51 µM (active) | CC50 [17]: 8.95 µM (active) | AC50 [6]: 3.46 µM (active) | CC50 [18]: 10.5 µM (active) | EC50 [19]: 6.56 µM (active)

CCCn1nnc(NC(=O)c2ccc(-c3cccc(Cl)c3)o2)n1
IC50 [20]: > 109 µM (inactive) | IC50 [21]: > 83.4 µM (inactive) | EC50 [22]: 6.81 µM (active)

CC(=O)Cn1ncc(Br)c(Br)c1=O
EC50 [15]: 1.24 µM (active) | IC50 [7]: 4.22 µM (active) | EC50 [8]: 12.4 µM (active) | IC50 [9]: 16.6 µM (not active) | AC50 [23]: 15.8 µM (active) | EC50 [19]: 0.976 µM (active)

O=C(Nc1cccc2cccc(NC(=O)c3ccco3)c12)c1ccco1
IC50 [24]: > 50 µM (not active) | IC50 [25]: 15.5 µM (active)

O=C(CCC1CCCN(Cc2ccc(O)c(Cl)c2)C1)NCc1ccccc1F (stereo unspecified)
EC50 [15]: < 0.1 µM (active) | EC50 [16]: 0.077 µM (active) | EC50 [19]: > 60 µM (not active)

Cn1c2ccccc2c(=O)n2c(=O)c3ccccc3cc12
IC50 [26]: 3.28 µM (active) | IC50 [27]: 10.9 µM (active) | IC50 [13]: > 69.5 µM (not active)

CCOc1ccc(NC(=O)CN(C)C(=O)c2ccccc2CCc2ccccc2)cc1OCC
EC50 [28]: > 50 µM (active)

CN=c1ccc(Br)cc(C(=O)/C=C/c2ccc3c(c2)OCO3)c1O
CC50 [29]: > 40 µM (active) | CC50 [30]: > 40 µM (active) | AC50 [31]: 10 µM (inconclusive) | AC50 [32]: inconclusive | IC50 [33]: 40.7 µM (inconclusive)

CN1CCN(CC(=O)Nc2sc3c(c2C#N)CCC3)CC1
IC50 [24]: > 50 µM (not active)

Cc1cc(C(=O)NCCC2=CCCCC2)no1
IC50 [20]: > 109 µM (inactive) | IC50 [21]: > 83.3 µM (inactive)

O=C(N/N=C/c1ccc2ccccc2c1)c1ccc(COc2ccc3c(c2)CCC3)o1
IC50 [13]: > 69.5 µM (not active) | IC50 [34]: 3.24 µM (active)

Reference: ChEMBL document CHEMBL1201862, “PubChem BioAssay data set” (2004)
